The target of test [1] is T1, EP3 membrane (EP3 receptor) (Homo sapiens, UniProt P43115).
T1 construct: purchased Millipore HTS092M
T1 sequence (P43115 1-390): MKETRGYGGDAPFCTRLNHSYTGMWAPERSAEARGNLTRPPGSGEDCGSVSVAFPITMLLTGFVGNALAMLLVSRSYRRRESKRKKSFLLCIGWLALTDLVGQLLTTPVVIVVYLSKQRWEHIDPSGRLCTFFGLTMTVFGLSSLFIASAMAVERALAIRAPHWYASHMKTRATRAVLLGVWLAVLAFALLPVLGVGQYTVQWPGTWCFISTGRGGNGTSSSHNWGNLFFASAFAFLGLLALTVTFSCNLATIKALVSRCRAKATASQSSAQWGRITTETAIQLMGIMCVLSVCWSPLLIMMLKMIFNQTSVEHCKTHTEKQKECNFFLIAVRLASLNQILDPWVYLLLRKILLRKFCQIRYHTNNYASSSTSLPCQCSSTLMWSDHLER
As to the kind of experiment: [3H]-PGE2 binding; EP3 competition binding (SPA). In short, it runs like this:
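SPA competition at room temperature, 2 h: EP3 membranes 2 μg/well, 2 nM [3H]-PGE2, 0.1% DMSO, in Tris/MgCl2/EDTA buffer pH 7.4. Compounds in 1:3 serial dilution; scintillation read; Ki by one-site nonlinear fit.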

Test [2] has as its target T2, CHO cells over-expressing the EP3 receptor (Homo sapiens, UniProt P43115).
T2 construct: expressed in transfected cells; host or cells: CHO cells
T2 sequence (P43115 1-390): T1 sequence (P43115 1-390)
As to the kind of experiment: CHO cell cAMP assay; EP3 cAMP antagonist dose response (sulprostone reference), HTRF. The format is cell-based. The note with it: sulprostone 700 nM (EC80) and FSK 2 μM (EC70); read-out: CHO_cAMP IC50. Summed up: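 EP3-overexpressing CHO cells pre-incubated with test compound, then stimulated 30 min at 37 °C with FSK (2 μM, EC70) plus sulprostone (700 nM, EC80); antagonism seen as restored cAMP. cAMP measured by HTRF 665/615 ratio, converted via on-plate standard curve. IC50 from Hill fit of 11-point dosing.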
Background: Cyclic AMP is a second messenger, typically raised through Gs and lowered through Gi signalling.

SMILES strings stand for the structures. Like-named read-outs stand apart in the source and are kept apart here.

As usually defined, the Ki is a dissociation constant, usually derived from enzyme kinetics or from competition with a known ligand. Read a low Ki as a stronger hold on the target. Usually IC50 stands for the concentration at which inhibition is half-maximal. `O=C(NC/C(F)=C1/CCc2cnn(-c3ccc(C(F)(F)F)cc3)c21)NS(=O)(=O)c1cc(Cl)c(Cl)s1` [Compound #137, (E)-4,5-dichloro-N-((2-fluoro-2-(1-(4-(trifluoromethyl)phenyl)-4,5-dihydrocyclopenta[c]pyrazol-6(1H)-ylidene)ethyl)carbamoyl)thiophene-2-sulfonamide] displayed a Ki in test [1] of 220 nM. In test [2], the IC50 turned out to be 488 nM.
The matching figures for `O=C(CC/C(F)=C1\CCCc2cnn(Cc3ccc(Cl)cc3Cl)c21)NS(=O)(=O)c1cc(Cl)c(Cl)s1` [Compound #56, (Z)-4-(1-(2,4-dichlorobenzyl)-1,4,5,6-tetrahydro-7H-indazol-7-ylidene)-N-((4,5-dichlorothiophen-2-yl)sulfonyl)-4-fluorobutanamide]: 1 nM and 4 nM.
The matching figures for `COc1ccc(Cl)cc1S(=O)(=O)NC(=O)NC/C(F)=C1\CCCc2cnn(Cc3ccc(C(F)(F)F)cc3)c21` [Compound #131, (Z)-5-chloro-N-((2-fluoro-2-(1-(4-(trifluoromethyl)benzyl)-1,4,5,6-tetrahydro-7H-indazol-7-ylidene)ethyl)carbamoyl)-2-methoxybenzenesulfonamide]: 94 nM and 349 nM.
As to `O=C(CC/C=C1\CCCc2cnn(Cc3ccc(Cl)cc3Cl)c21)NS(=O)(=O)c1cc(Cl)c(Cl)s1` [Compound #8, (E)-4-(1-(2,4-dichlorobenzyl)-1,4,5,6-tetrahydro-7H-indazol-7-ylidene)-N-((4,5-dichlorothiophen-2-yl)sulfonyl)butanamide], the inhibitory constant (Ki) in test [1] (unit nM) was 0.1 nM. Besides, the IC50 in test [2] worked out at 2 nM.
Molecule `Cc1nc(C)c(S(=O)(=O)NC(=O)NC/C=C2\CCCc3cnn(Cc4ccc(Cl)cc4Cl)c32)s1` [Compound #150, (E)-N-((2-(1-(2,4-dichlorobenzyl)-1,4,5,6-tetrahydro-7H-indazol-7-ylidene)ethyl)carbamoyl)-2,4-dimethylthiazole-5-sulfonamide] showed a Ki in test [1] of 2 nM. In test [2], the half-inhibitory concentration (IC50) amounted to 4 nM.
The matching figures for `O=C(NC/C(F)=C1\CCCCc2cnn(Cc3ccc(Cl)cc3Cl)c21)NS(=O)(=O)c1ccc(Cl)cc1` [Compound #98, (Z)-4-chloro-N-((2-(1-(2,4-dichlorobenzyl)-4,5,6,7-tetrahydrocyclohepta[c]pyrazol-8(1H)-ylidene)-2-fluoroethyl)carbamoyl)benzenesulfonamide]: 171 nM and 120 nM.
The molecule `COc1cccc(S(=O)(=O)NC(=O)NC/C=C2\COCc3cnn(Cc4ccc(Cl)cc4Cl)c32)c1` [Compound #63, (Z)—N-((2-(1-(2,4-dichlorobenzyl)-1,4-dihydropyrano[4,3-c]pyrazol-7(6H)-ylidene)ethyl)carbamoyl)-3-methoxybenzenesulfonamide] yielded a Ki in test [1] of 44 nM. Also, in test [2], the IC50 was found to be 121 nM.
On the same counts, the results for `O=C(NC/C(F)=C1/CCCc2cnn(-c3ccc(C(F)(F)F)cc3)c21)NS(=O)(=O)c1ccc2c(c1)OCCO2` [Compound #117, (E)-N-((2-fluoro-2-(1-(4-(trifluoromethyl)phenyl)-1,4,5,6-tetrahydro-7H-indazol-7-ylidene)ethyl)carbamoyl)-2,3-dihydrobenzo[b][1,4]dioxine-6-sulfonamide] are over 10000 nM and over 20000 nM.
Take `O=C(NS(=O)(=O)c1cc(Cl)c(Cl)s1)OC/C=C1\CCCc2cnn(Cc3ccc(Cl)cc3Cl)c21` [Compound #5, (E)-2-(1-(2,4-dichlorobenzyl)-1,4,5,6-tetrahydro-7H-indazol-7-ylidene)ethyl ((4,5-dichlorothiophen-2-yl)sulfonyl)carbamate]: in test [1], the inhibition constant Ki is 1 nM. Besides, the 50% inhibitory concentration (IC50) in test [2] was found to be 5 nM.
On the same counts, the results for `O=C(NC/C(F)=C1\COCc2cnn(-c3cccc(C(F)(F)F)c3)c21)NS(=O)(=O)c1ccc(Cl)cc1` [Compound #104, (E)-4-chloro-N-((2-fluoro-2-(1-(3-(trifluoromethyl)phenyl)-1,4-dihydropyrano[4,3-c]pyrazol-7(6H)-ylidene)ethyl)carbamoyl)benzenesulfonamide] are over 10000 nM and over 20000 nM.

For the origin of these results see US20210253562A1, “ACYLSUFONAMIDE COMPOUNDS USEFUL AS EP3 RECEPTOR ANTAGONISTS” (Janssen Pharmaceutica NV, priority 2018, published 2021).
